Holding throughout (assay): relative viability (nuclei count vs DMSO), 5 days (fraction); higher = more cells survive
Compound in the assay “Mirin + Palbociclib”: N=C1NC(=O)/C(=C/c2ccc(O)cc2)S1 [Mirin] + CC(=O)c1c(C)c2cnc(Nc3ccc(N4CCNCC4)cn3)nc2n(C2CCCC2)c1=O [Palbociclib] (partner 0.5 µM)
An outline of the steps: (§1)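 A single step with final 0.05% Triton X-100, 1% formaldehyde and 1 ug/ml Hoechst fixed the cells and stained nuclei 5 days after treatment. Lung cancer cell lines in 1536-well plates had been treated by pin tool the day after seeding with one drug alone or a fixed anchor-drug dose plus five library-drug doses (not always all listed) in √10 steps, and nuclei were counted on 4× images. Relative viability is the ratio of nuclei in treated wells to nuclei in vehicle wells, taken as the median of duplicate plates.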

Compound in the assay “Mirin + Lapatinib”: N=C1NC(=O)/C(=C/c2ccc(O)cc2)S1 [Mirin] + CS(=O)(=O)CCNCc1ccc(-c2ccc3ncnc(Nc4ccc(OCc5cccc(F)c5)c(Cl)c4)c3c2)o1 [Lapatinib] (partner 2 µM)
An outline of the steps:
as §1

Compound in the assay “Mirin + Luminespib”: N=C1NC(=O)/C(=C/c2ccc(O)cc2)S1 [Mirin] + CCNC(=O)c1noc(-c2cc(C(C)C)c(O)cc2O)c1-c1ccc(CN2CCOCC2)cc1 [Luminespib] (partner 0.01 µM)
The gist of the method: as §1

Compound in assay [1]: CCn1c(-c2nonc2N)nc2cnc(Oc3cccc(NC(=O)c4ccc(OCCN5CCOCC5)cc4)c3)cc21 + CC1(C)CCC(c2ccc(Cl)cc2)=C(CN2CCN(c3ccc(C(=O)NS(=O)(=O)c4ccc(N[C@H](CCN5CCOCC5)CSc5ccccc5)c(S(=O)(=O)C(F)(F)F)c4)cc3)CC2)C1 [Navitoclax] (partner 0.5 µM)
An outline of the steps:
as §1

Consider PC-3 [JPC-3], for which the relative viability in the assay with Mirin + Palbociclib (first compound 0.25 µM) was found to be 0.596; with Mirin + Palbociclib (first compound 0.7906 µM) it was 0.574; with Mirin + Palbociclib (first compound 2.5 µM), 0.551; with Mirin + Palbociclib (first compound 7.906 µM), 0.524; with Mirin + Palbociclib (first compound 25 µM), 0.631; with Mirin + Lapatinib (first compound 0.25 µM) it was 0.52. The relative viability was 0.469 in the assay with Mirin + Lapatinib (first compound 0.7906 µM); 0.462 with Mirin + Lapatinib (first compound 2.5 µM); 0.455 with Mirin + Lapatinib (first compound 7.906 µM); 0.491 with Mirin + Lapatinib (first compound 25 µM); 0.664 in the assay with Mirin + Luminespib (first compound 0.25 µM); 0.732 in the assay with Mirin + Luminespib (first compound 0.7906 µM). The relative viability with Mirin + Luminespib (first compound 2.5 µM) amounted to 0.758; with Mirin + Luminespib (first compound 7.906 µM), 0.651; in the assay with Mirin + Luminespib (first compound 25 µM) it was 0.787; in assay [1] (first compound 0.04 µM), 0.846; in assay [1] (first compound 0.1265 µM), 0.814; in assay [1] (first compound 0.4 µM), 0.801. Besides, the figures for the relative viability in assay [1] (first compound 1.265 µM) and in assay [1] (first compound 4 µM) were 0.866 and 0.779, respectively.

For PC-14, the relative viability worked out at 0.528 with Mirin + Palbociclib (first compound 0.25 µM); 0.558 in the assay with Mirin + Palbociclib (first compound 0.7906 µM); 0.508 with Mirin + Palbociclib (first compound 2.5 µM); 0.512 in the assay with Mirin + Palbociclib (first compound 7.906 µM); 0.522 with Mirin + Palbociclib (first compound 25 µM); 0.373 in the assay with Mirin + Lapatinib (first compound 0.25 µM). Also, the relative viability with Mirin + Lapatinib (first compound 0.7906 µM) came to 0.39; with Mirin + Lapatinib (first compound 2.5 µM) it was 0.339; with Mirin + Lapatinib (first compound 7.906 µM), 0.382; with Mirin + Lapatinib (first compound 25 µM), 0.49; in the assay with Mirin + Luminespib (first compound 0.25 µM), 0.177; with Mirin + Luminespib (first compound 0.7906 µM) it was 0.142. The relative viability with Mirin + Luminespib (first compound 2.5 µM) worked out at 0.191; in the assay with Mirin + Luminespib (first compound 7.906 µM) it was 0.187; in the assay with Mirin + Luminespib (first compound 25 µM), 0.144; in assay [1] (first compound 0.04 µM), 1.1; in assay [1] (first compound 0.1265 µM), 1.01; in assay [1] (first compound 0.4 µM), 0.924. Further, the relative viability turned out to be 0.934 in assay [1] (first compound 1.265 µM) and 0.748 in assay [1] (first compound 4 µM).

Consider RERF-LC-KJ, for which the relative viability in the assay with Mirin + Palbociclib (first compound 0.25 µM) turned out to be 1.14; in the assay with Mirin + Palbociclib (first compound 0.7906 µM), 1.09; with Mirin + Palbociclib (first compound 2.5 µM), 1.2; with Mirin + Palbociclib (first compound 7.906 µM), 1.2; with Mirin + Palbociclib (first compound 25 µM), 1.1; with Mirin + Lapatinib (first compound 0.25 µM) it was 0.972. For the same cell line, the relative viability with Mirin + Lapatinib (first compound 0.7906 µM) came out at 0.968; with Mirin + Lapatinib (first compound 2.5 µM) it was 0.891; in the assay with Mirin + Lapatinib (first compound 7.906 µM) it was 0.835; in the assay with Mirin + Lapatinib (first compound 25 µM), 0.95; in the assay with Mirin + Luminespib (first compound 0.25 µM), 1.25; with Mirin + Luminespib (first compound 0.7906 µM) it was 1.25. The relative viability in the assay with Mirin + Luminespib (first compound 2.5 µM) was determined as 1.36; with Mirin + Luminespib (first compound 7.906 µM) it was 1.2; with Mirin + Luminespib (first compound 25 µM) it was 1.18; in assay [1] (first compound 0.04 µM), 0.867; in assay [1] (first compound 0.1265 µM), 0.828; in assay [1] (first compound 0.4 µM) it was 0.946. Moreover, the relative viability in assay [1] (first compound 1.265 µM) was 0.603; in assay [1] (first compound 4 µM), 0.481.

Take SK-LU-1: the relative viability was determined as 0.433 with Mirin + Palbociclib (first compound 0.25 µM); 0.393 in the assay with Mirin + Palbociclib (first compound 0.7906 µM); 0.417 with Mirin + Palbociclib (first compound 2.5 µM); 0.348 in the assay with Mirin + Palbociclib (first compound 7.906 µM); 0.405 with Mirin + Palbociclib (first compound 25 µM); 0.974 with Mirin + Lapatinib (first compound 0.25 µM). Besides, the relative viability in the assay with Mirin + Lapatinib (first compound 0.7906 µM) was determined as 0.88; with Mirin + Lapatinib (first compound 2.5 µM), 0.792; with Mirin + Lapatinib (first compound 7.906 µM) it was 0.788; with Mirin + Lapatinib (first compound 25 µM), 0.541; with Mirin + Luminespib (first compound 0.25 µM) it was 0.193; with Mirin + Luminespib (first compound 0.7906 µM), 0.188. Besides, the relative viability is 0.228 with Mirin + Luminespib (first compound 2.5 µM); 0.163 with Mirin + Luminespib (first compound 7.906 µM); 0.197 in the assay with Mirin + Luminespib (first compound 25 µM); 1.07 in assay [1] (first compound 0.04 µM); 0.619 in assay [1] (first compound 0.1265 µM); 0.383 in assay [1] (first compound 0.4 µM). The relative viability was 0.296 in assay [1] (first compound 1.265 µM) and 0.229 in assay [1] (first compound 4 µM).

Regarding SK-MES-1, the relative viability was determined as 0.305 in the assay with Mirin + Palbociclib (first compound 0.25 µM); 0.338 with Mirin + Palbociclib (first compound 0.7906 µM); 0.303 in the assay with Mirin + Palbociclib (first compound 2.5 µM); 0.3 in the assay with Mirin + Palbociclib (first compound 7.906 µM); 0.451 in the assay with Mirin + Palbociclib (first compound 25 µM); 0.461 in the assay with Mirin + Lapatinib (first compound 0.25 µM). Further, the relative viability came to 0.469 in the assay with Mirin + Lapatinib (first compound 0.7906 µM); 0.544 in the assay with Mirin + Lapatinib (first compound 2.5 µM); 0.53 with Mirin + Lapatinib (first compound 7.906 µM); 0.624 with Mirin + Lapatinib (first compound 25 µM); 0.869 in the assay with Mirin + Luminespib (first compound 0.25 µM); 0.915 in the assay with Mirin + Luminespib (first compound 0.7906 µM). The relative viability stood at 0.88 in the assay with Mirin + Luminespib (first compound 2.5 µM); 0.919 in the assay with Mirin + Luminespib (first compound 7.906 µM); 0.7 in the assay with Mirin + Luminespib (first compound 25 µM); 1.32 in assay [1] (first compound 0.04 µM); 1.35 in assay [1] (first compound 0.1265 µM); 1.1 in assay [1] (first compound 0.4 µM). Further, the relative viability in assay [1] (first compound 4 µM) is 1.05.

For the cell line SW 1573, the relative viability came to 0.366 with Mirin + Palbociclib (first compound 0.25 µM); 0.42 in the assay with Mirin + Palbociclib (first compound 0.7906 µM); 0.375 with Mirin + Palbociclib (first compound 2.5 µM); 0.42 in the assay with Mirin + Palbociclib (first compound 7.906 µM); 0.292 with Mirin + Palbociclib (first compound 25 µM); 1.13 with Mirin + Lapatinib (first compound 0.25 µM). The relative viability turned out to be 1.16 in the assay with Mirin + Lapatinib (first compound 0.7906 µM); 1.09 in the assay with Mirin + Lapatinib (first compound 2.5 µM); 0.952 with Mirin + Lapatinib (first compound 7.906 µM); 0.908 with Mirin + Lapatinib (first compound 25 µM); 0.228 in the assay with Mirin + Luminespib (first compound 0.25 µM); 0.272 in the assay with Mirin + Luminespib (first compound 0.7906 µM). Also, the relative viability with Mirin + Luminespib (first compound 2.5 µM) was found to be 0.247; with Mirin + Luminespib (first compound 7.906 µM) it was 0.201; in the assay with Mirin + Luminespib (first compound 25 µM) it was 0.205; in assay [1] (first compound 0.04 µM), 0.911; in assay [1] (first compound 0.1265 µM), 1.19; in assay [1] (first compound 0.4 µM), 0.807. For the same cell line, the relative viability in assay [1] (first compound 1.265 µM) was 0.562; in assay [1] (first compound 4 µM) it was 0.223.

The record behind these values is the supplement of paper PMC10307832.
